Laboratory results taken from publication PMC12195250, “Synthesis, Biological Evaluation, Molecular Dynamics, and QM-MM Calculation of Spiro-Acridine Derivatives Against Leishmaniasis” (Microorganisms, 2025).
pIC50: −log10 of the molar value. “Also recorded” adds a separate entry of the source. Where two headings read alike, the source gives them in different places.

What was measured:
[1] = system: L. infantum promastigotes (Strain MHOM/BR/70/BH46); assay: Anti-promastigote effect, Neubauer chamber counting; assay type: cell-based, Leishmania infantum; details: 72 h incubation, read-out: L. infantum IC50PRO
Method: (§1) The promastigote cultures of L. infantum (Strain MHOM/BR/70/BH46) and L. amazonensis (Strain MHOM/BR/PH8) were kept in Schneider medium (Sigma-Aldrich, St. Louis, MO, USA) supplemented with 20% fetal bovine serum (FBS) and 1% streptomycin/penicillin in a B.O.D. incubator (J. Prolab, model JP. 100 LBCM/CPAM) at 26 °C. The promastigote strains were used in the exponential growth phase in all stages for experimental purposes.
(§2) The Neubauer chamber method was used to assess the inhibitory concentrations of the synthesized spiro-acridines capable of eliminating 50% of the promastigotes in cultures of L. amazonensis and L. infantum (IC50) strains. Promastigotes from both species were collected, counted, and diluted in Schneider’s medium (Sigma-Aldrich, St. Louis, MO, USA) supplemented with 20% fetal bovine serum (FBS) at a final concentration of 1 × 10^6 cells/mL. The evaluated promastigotes were then exposed to different concentrations of the tested compounds (10, 5, 2.5, 1.25, and 0.625 μg/mL). The positive control used the commercial drug Amphotericin B®, while the negative control consisted of promastigotes incubated in Schneider’s medium alone. After 72 h of incubation at 25 °C, culture growth was observed by counting the viable cells using a Neubauer chamber and calculated using the following Equation (1): No. Leishmania/mL = No. of cells counted × No. of Neubauer chamber(1) quadrants × the dilution used × 10^4 (Neubauer chamber correction factor)
(§3) The concentration parameter that inhibits 50% of parasite growth (IC50) was used to estimate the growth inhibition of the promastigote species of Leishmania sp. Thus, IC50 was determined by linear regression analysis with SPSS 8.0 software for Windows. Each test was performed in two independent experiments, with different cultures and in technical triplicate.

[2] = system: L. amazonensis promastigotes (Strain MHOM/BR/PH8); assay: as above; assay type: cell-based, Leishmania amazonensis; details: 72 h incubation, read-out: L. amazonensis IC50PRO
Method: as §1, §2, §3

[3] = system: L. amazonensis axenic amastigotes; assay: Anti-amastigote effect on axenic amastigotes, MTT; assay type: cell-based, Leishmania amazonensis; details: L. amazonensis axenic amastigotes, 24 h, MTT
Method: The amastigote forms of L. amazonensis were maintained under cryopreservation until they were transferred to an NNN medium (Novy–MacNeal–Nicolle) and incubated at 26 °C until the parasites reached the log growth phase. Subsequently, the suspension was transferred to Schneider culture medium (Sigma-Aldrich, St. Louis, MO, USA), supplemented with 20% inactivated fetal bovine serum and 0.2% gentamicin sulfate at 26 °C, causing the parasites to return to the log growth phase. The cultures were then maintained at 37 °C, producing a growth curve and the formation of the axenic amastigote strains.
The concentrations of the compounds AMTAC-02 and ACMD-03 capable of eliminating 50% of the cells in the cultures of L. amazonensis amastigotes (IC50) were determined using the MTT [3-(4,5-dimethylthiazol-2-yl)-2,5-diphenyltetrazolium bromide] (Sigma-Aldrich) reagent. In a 96-well plate, the assay was initiated by diluting both compounds to concentrations of 2, 4, 8, 16, and 32 μg/mL and 2.0 × 10^5 axenic amastigotes per well. The plates were incubated at 37 °C for 24 h. Then, 10 μL of MTT was added per well, and the cultures were re-incubated for 4 h. Subsequently, 50 μL of dimethyl sulfoxide was added to each well to solubilize the formazan crystals formed. The absorbances were measured using a SpectraMAX GeminiXS plate spectrophotometer (Molecular Devices LLC) at a wavelength of 570 nm. The negative control consisted of untreated cells, while the positive control was assessed by incubating the axenic amastigotes with the reference drug Amphotericin B® [13].

[4] = system: human red blood peripheral cells (O+); assay: Hemocompatibility (hemolysis) in red blood cells; assay type: cell-based; details: 1 h at 37 °C
Method: The hemocompatibility of the spiro-acridine derivatives was determined using human red blood peripheral cells (O+) from healthy adults. The erythrocytes were diluted in phosphate-buffered saline (PBS) to a concentration of 5% in an 80 µL suspension and subsequently incubated with 20 µL of different concentrations of spiro-acridine derivatives and Amphotericin B® (400, 200, 100, 50, 25, 12,5, 6,25 and 3,12 μg/mL). Afterward, the samples were incubated for 1 h at 37 °C in a B.O.D incubator, and the reaction was stopped by adding 200 μL of PBS (1.5 mM KH2PO4, 8.1 mM Na2HPO4, 136.9 mM NaCl, and 2.6 mM KCl, pH 7.2). The samples were centrifuged at 2000 rpm for 10 min, at room temperature. The supernatants were collected and subjected to spectrophotometry using a spectrophotometer (model Biosystems ELx800, Curitiba, PR, Brazil) at 540 nm. The hemolysis percentage was determined as [(Abssam − Abscon)/(Abstot − Abscon) × 100], where Abssam refers to the absorbance of the sample, Abscon to the absorbance of the blank control (without compounds), and Abstot to the absorbance of total hemolysis (obtained by replacing the sample solution with an equal volume of Milli-Q water). The results were expressed as average hemolytic concentration (HC50), considering the positive control as 100% hemolysis.

[5] = system: macrophages infected with L. amazonensis; assay: Reactive oxygen and nitrogen species (DCF-DA, DAF-FM diacetate); assay type: cell-based; details: 24 h; for expression of ROS: 2, 4 and 8 µg/mL, DCF-DA, compared to basal macrophage
From the text: The assay for the quantification of reactive oxygen species (ROS) and reactive nitrogen species (RNS) was executed using, respectively, the probe 2′,7′-dichlorodihydrofluorescein diacetate (DCF-DA) and 4-amino-5-methylamino-2′,7′-difluorofluorescein diacetate (DAF-FM diacetate), which produce 2–7-dichlorofluorescein (DCF) and 4-amino-5-methylamino-2′,7′-difluorofluorescein (DAF-FM) in the presence of the respective reactive species. Therefore, initially, macrophages were adhered to and infected with L. amazonensis in a plate, followed by the treatment with AMTAC-02 or ACMD-03 at concentrations of 2, 4, and 8 μg/mL. Subsequently, following a 24-h treatment period, the plates were incubated for 30 min with the DCF-DA probe diluted in saline (pH 7.2) and for 1 h with the DAF-FM diacetate probe diluted in saline (pH 7.2), respectively, in a humid chamber at 37 °C with 5% CO2, protected from light. The cells were washed twice with saline (pH 7.2) at room temperature and then resuspended in 200 µL of saline under the same conditions. The negative control comprised uninfected and untreated macrophages, while the positive control comprised untreated macrophages infected with L. amazonensis. Afterward, the fluorescence intensity in each sample was captured using the BD LRS II FORTESSA flow cytometer and the DIVA program version 7 (BD Bioscience). The mean fluorescence intensity (MFI) was then obtained by processing the data in FlowJoTM version 10.6.1. The experiment was performed in triplicate, and the results were calculated as the difference in MFI in each group.

| Compound | pIC50 [1] | pIC50 [2] | pIC50 [3] | HC50 (concentration capable of promoting 50% hemolysis) [4] | expression of ROS [5] | expression of RNS ([5]; DAF-FM diacetate, versus infected macrophage) | pIC50 ([1]; Leishmania infantum) | pIC50 ([2]; Leishmania amazonensis) | pIC50 ([3]; Leishmania amazonensis) |
| --- | --- | --- | --- | --- | --- | --- | --- | --- | --- |
| N#CC1=CC2(c3ccccc3Nc3ccccc32)N(c2ccc(Cl)cc2)C1=O [ACMD-03, (E)1′-(4-chlorophenyl)-5′-oxo-1′, 5′-dihydro-10H-spiro{acridine-9,2′-pyrrole]-4′-carbonitrile] | 5.11 | 4.96 | 4.98 | >400 µM | significantly increased ROS expression | intensified RNS expression; also recorded: significantly increased (* p < 0.05) RNS at a concentration of 2 µg/mL |  |  |  |
| COc1ccc(/C=N/N2C(=O)C(C#N)=CC23c2ccccc2Nc2ccccc23)cc1 [AMTAC-02, (E)-1′-((4-methoxybenzylidene)amino)-5′-oxo-1′,5′-dihydro-10H-spiro[acridine-9,2′-pyrrole]-4′-carbonitrile] |  |  | 4.87 | >400 µM | significantly increased ROS expression |  | 5.65 | 6.14 | 4.87 to 4.98 |
